Experimental data: paper PMC5453556, “Designing small molecules to target cryptic pockets yields both positive and negative allosteric modulators” (PLoS ONE, 2017)

Tests used:
Format in all cases: biochemical
[1] = target: TEM β-lactamase (TEM, M182T variant) (Escherichia coli, UniProt P62593, M180T); assay: TEM β-lactamase nitrocefin hydrolysis activity assay (UV-vis, 482 nm); conditions: for % change in rate: 50 µM nitrocefin; for kcat: TEM + 100 µM compound, nitrocefin
[2] = target: T1, chymotrypsin (Bos taurus, UniProt P00766); assay: Chymotrypsin reaction, test for non-specific activity (410 nm); conditions: alternative enzyme chymotrypsin; 30 nM enzyme, 200 μM N-succinyl-Ala-Ala-Pro-Phe p-nitroanilide, 25°C
T1 construct: purchased Sigma-Aldrich
Protocol: (§1) Chymotrypsin reactions were followed at 410 nm using 30 nM enzyme and 200 μM N-succinyl-Ala-Ala-Pro-Phe p-nitroanilide at 25°C. β-galactosidase reactions were followed at 420 nm using 4 nM enzyme and 1 mM 2-nitrophenyl β-D-galactopyranoside at 37°C. […] Enzymes and substrates were purchased from Sigma-Aldrich.

[3] = system: β-galactosidase; assay: β-galactosidase reaction, test for non-specific activity (420 nm); conditions: alternative enzyme β-galactosidase; 4 nM enzyme, 1 mM 2-nitrophenyl β-D-galactopyranoside, 37°C
Protocol: as §1

[4] = target: TEM L220N (Escherichia coli, UniProt P62593, L218N/M180T)
[5] = target: TEM T265V (Escherichia coli, UniProt P62593, M180T/T261V)
[6] = detergent-dependence: 0% Triton-X
[7] = detergent-dependence: 0.01% Triton-X

| SMILES | % change in rate ([1]; 10x enzyme test: 1 nM TEM) | % change in rate ([1]; 10x enzyme test: 10 nM TEM) | kcat [1] | % modulation of kcat / Km ([1]; TEM, 100 µM compound vs no compound) | decrease of kcat/Km ([1]; TEM, as worded in the text (decreasing kcat/Km by)) | % change in rate [1, 6] | % change in rate [1, 7] | % change in rate [2] | % change in rate [3] | kcat [4] | kcat [5] |
| --- | --- | --- | --- | --- | --- | --- | --- | --- | --- | --- | --- |
| COc1cccc(C(=O)C[C@@H](c2ccccc2)C(C)(C)[N+](=O)[O-])c1 (racemic) [compound 3] | -47% | -48% | 256 ± 28 s⁻¹ | -59% | 59% | -40% | -45% | -2% | +3% | – | – |
| Oc1ccc(CC[C@H]2CC[C@H](c3ccc(O)cc3)CO2)cc1 (relative stereo) [compound 1] | +65% | – | 527 ± 8 s⁻¹ | – | – | – | +66% | -5% | +2% | 5.2 ± 0.3 s⁻¹ | – |
| c1nc(NCCCN2CCOCC2)c2c3c(sc2n1)CCCC3 [compound 2] | +38% | +33% | 334 ± 5 s⁻¹ | – | – | +30% | +33% | -1% | +5% | – | 307 ± 17 s⁻¹ |
